Data on 15 molecules can be found in PubChem BioAssay (NCI).

Among the test systems are HL-60(TB) leukemia; HOP-62 NSCLC; IGROV1 ovarian; LOX IMVI melanoma; OVCAR-5 ovarian; OVCAR-8 ovarian; RPMI-8226 leukemia; SF-295 CNS.
Common to all, as to assay: NCI-60 cell line screen, 48 h

SMILES strings stand for the structures. Where “and” joins values, the source holds several entries; their conditions need not be identical. Equal values may be shown once.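 Exposure lasted 48 hours, with cells grown in 96-well plates and compounds tested at five concentrations. GI50: concentration for 50% inhibition of growth. TGI marks complete inhibition of growth.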

As for `CN(C)CCCNc1nn2c(=O)c3ccccc3nc2c2ccccc12`, the GI50 was 18.1 µM in the test with HL-60(TB) leukemia; 8.26 µM in the test on HOP-62 NSCLC; 6.19 µM with IGROV1 ovarian; 3.8 µM in the test on LOX IMVI melanoma; 12.8 µM with OVCAR-5 ovarian; 7.08 µM in the test with OVCAR-8 ovarian. Also, the GI50 is 11.9 µM with RPMI-8226 leukemia and 3.86 µM with SF-295 CNS. Besides, the TGI was determined as 72.7 µM in the test on HL-60(TB) leukemia; 21.5 µM with HOP-62 NSCLC; 47.8 µM in the test on IGROV1 ovarian; 17.2 µM with LOX IMVI melanoma; 34.3 µM with OVCAR-5 ovarian; 40.7 µM with OVCAR-8 ovarian. The results for the TGI in the test on RPMI-8226 leukemia and in the test on SF-295 CNS were 33.7 µM and 24.5 µM, respectively.
On to `COc1ccc2c(c1)CCC1C2CC[C@@]2(C)C1CC[C@@]2(O)CNC(=O)/C=C/c1ccc(O)c(OC)c1` (stereo not given in full), for which the GI50 in the test with HL-60(TB) leukemia is 8.46 µM; in the test with HOP-62 NSCLC, 31.8 µM; in the test with IGROV1 ovarian, 4.66 µM; in the test with LOX IMVI melanoma it was 7.76 µM; in the test with OVCAR-5 ovarian, 45.5 µM; in the test with OVCAR-8 ovarian it was 38.4 µM. In addition, the GI50 is 6.47 µM in the test with RPMI-8226 leukemia and 28.4 µM in the test with SF-295 CNS. The TGI in the test on HL-60(TB) leukemia is above 100 µM; with HOP-62 NSCLC, above 100 µM; in the test on IGROV1 ovarian, above 100 µM; with LOX IMVI melanoma, 20.5 µM; in the test with OVCAR-5 ovarian, above 100 µM; in the test on OVCAR-8 ovarian, above 100 µM. For the same molecule, the TGI in the test with RPMI-8226 leukemia was 53.9 µM; in the test on SF-295 CNS, above 100 µM.
Take `CC(=O)Oc1ccc(OC(C)=O)c2ccccc12`: the GI50 was 2.72 µM with HL-60(TB) leukemia; 12.6 µM with HOP-62 NSCLC; 3.2 µM with IGROV1 ovarian; 14.8 µM with LOX IMVI melanoma; 17.5 µM in the test on OVCAR-5 ovarian; 6.66 µM with OVCAR-8 ovarian. Also, the GI50 was 3.85 µM with RPMI-8226 leukemia and 20.9 µM in the test with SF-295 CNS. The TGI in the test with HL-60(TB) leukemia worked out at 7.87 µM; with HOP-62 NSCLC, 25.3 µM; with IGROV1 ovarian, 11.5 µM; with LOX IMVI melanoma it was 30.7 µM; with OVCAR-5 ovarian, 31.7 µM; with OVCAR-8 ovarian, 22.7 µM. Also, the TGI was 10.2 µM with RPMI-8226 leukemia and above 100 µM in the test on SF-295 CNS.
As for `CN(C)c1ccc(/C=C2\C[C@H]3[C@@H]4CC=C5C[C@@H](N6CCCC6)CC[C@]5(C)[C@H]4CC[C@]3(C)[C@H]2O)cc1`, the GI50 was 2.3 µM with HL-60(TB) leukemia; 2.98 µM with HOP-62 NSCLC; 3.92 µM in the test with IGROV1 ovarian; 2.25 µM with LOX IMVI melanoma; 14.1 µM with OVCAR-5 ovarian; 2.87 µM with OVCAR-8 ovarian. Also, the GI50 in the test on RPMI-8226 leukemia is 3.1 µM; with SF-295 CNS it was 8.18 µM. Besides, the TGI with HL-60(TB) leukemia is 2.31 µM and 4.86 µM; in the test on HOP-62 NSCLC, 7.14 µM and 12.9 µM; in the test on IGROV1 ovarian, 2 µM and 8.53 µM; with LOX IMVI melanoma, 1.57 µM and 4.72 µM; in the test with OVCAR-5 ovarian it was 13 µM and 57.2 µM; with OVCAR-8 ovarian, 1.75 µM and 5.47 µM. The TGI in the test on SF-295 CNS was 2.99 µM and 23.1 µM.
Consider `CC(=O)OCC1OC(OC2C(COC(C)=O)OC(OCCC[S-])C(OC(C)=O)C2OC(C)=O)C(OC(C)=O)C(OC(C)=O)C1OC(C)=O.[Au+].c1ccc(CN2[CH-]N(Cc3ccccc3)C(c3ccccc3)=C2c2ccccc2)cc1` (stereo not given), for which the GI50 with HL-60(TB) leukemia is 2.49 µM; with HOP-62 NSCLC, 3.75 µM; in the test on IGROV1 ovarian it was 3.06 µM; in the test on LOX IMVI melanoma it was 3.42 µM; in the test on OVCAR-5 ovarian, 5.67 µM; in the test with OVCAR-8 ovarian, 3.75 µM. In addition, the GI50 with RPMI-8226 leukemia was 2.78 µM; with SF-295 CNS, 2.14 µM. Besides, the TGI is 6.43 µM in the test on HL-60(TB) leukemia; 18.2 µM in the test with HOP-62 NSCLC; 16 µM with IGROV1 ovarian; 13.6 µM in the test on LOX IMVI melanoma; 27 µM in the test with OVCAR-5 ovarian; above 100 µM in the test with OVCAR-8 ovarian. In addition, the TGI in the test with RPMI-8226 leukemia stood at 11.1 µM; in the test with SF-295 CNS, 7.3 µM.
`Cc1ccc2c(c1)C(=O)c1c-2n(CCCN)c(=O)c2cc([N+](=O)[O-])ccc12`: the GI50 was 0.0285 µM in the test with HL-60(TB) leukemia; 0.0389 µM in the test with HOP-62 NSCLC; 0.176 µM with IGROV1 ovarian; 0.177 µM in the test with LOX IMVI melanoma; 0.873 µM in the test with OVCAR-5 ovarian; 0.387 µM in the test on OVCAR-8 ovarian. Also, the GI50 is 0.0199 µM in the test on RPMI-8226 leukemia and 0.12 µM in the test on SF-295 CNS. Moreover, the TGI in the test with HL-60(TB) leukemia was 0.327 µM; in the test with HOP-62 NSCLC it was 0.428 µM; in the test on IGROV1 ovarian it was 0.985 µM; in the test with LOX IMVI melanoma, 0.829 µM; with OVCAR-5 ovarian it was 1.58 µM; with OVCAR-8 ovarian it was 1.33 µM. In addition, the TGI in the test with RPMI-8226 leukemia worked out at 0.226 µM; in the test with SF-295 CNS it was 0.663 µM.
For `COC(=O)C(/C(=N/NC(=O)c1ccncc1)C(=O)Nc1ccccc1OC)c1nc2ccc(Cl)cc2[nH]c1=O` (stereo not given), the TGI with HL-60(TB) leukemia, in the test with HOP-62 NSCLC, in the test with IGROV1 ovarian, with LOX IMVI melanoma, in the test on OVCAR-5 ovarian and in the test with OVCAR-8 ovarian was above 100 µM in each case. In addition, the TGI with RPMI-8226 leukemia and in the test with SF-295 CNS was above 100 µM in each case.
As for `O=C(O)c1c(O)c2cc(Br)ccc2oc1=O`, the TGI with HL-60(TB) leukemia, in the test on HOP-62 NSCLC, in the test on IGROV1 ovarian, in the test with LOX IMVI melanoma, with OVCAR-5 ovarian and in the test on OVCAR-8 ovarian was above 100 µM throughout. The TGI in the test with RPMI-8226 leukemia and in the test with SF-295 CNS was above 100 µM throughout.
Consider `CC(C)C[C@H](NC(=O)[C@H](CCc1ccccc1)NC(=O)CN1CCOCC1)C(=O)N[C@@H](Cc1ccccc1)C(=O)N[C@@H](CC(C)C)C(=O)[C@@]1(C)CO1`, for which the GI50 in the test on HL-60(TB) leukemia is 0.0268 µM; with HOP-62 NSCLC, below 0.0139 µM; in the test with IGROV1 ovarian, 0.0324 µM; in the test on LOX IMVI melanoma, below 0.01 µM; in the test on OVCAR-5 ovarian, 0.0255 µM; in the test with OVCAR-8 ovarian, 0.0204 µM. Also, the GI50 in the test on RPMI-8226 leukemia and with SF-295 CNS was below 0.01 µM throughout. Also, the TGI with HL-60(TB) leukemia was 0.093 µM; in the test with HOP-62 NSCLC, below 0.0229 µM; in the test on LOX IMVI melanoma, 0.0135 µM; with OVCAR-5 ovarian it was 0.112 µM; in the test with OVCAR-8 ovarian, 0.0952 µM; in the test with SF-295 CNS, 0.0561 µM.
Take `Nc1[nH]c(=O)ncc1F`: the TGI with HL-60(TB) leukemia, in the test on HOP-62 NSCLC, with IGROV1 ovarian, with LOX IMVI melanoma, in the test with OVCAR-5 ovarian and in the test with OVCAR-8 ovarian was above 100 µM each time. Further, the TGI in the test on RPMI-8226 leukemia and in the test on SF-295 CNS was above 100 µM in each case.
As for `CN1/C(=C\C(I)C(I)C2=[N+](C)c3ccccc3C2(C)C)C(C)(C)c2ccccc21` (stereo not given), the GI50 in the test on HL-60(TB) leukemia is 0.178 µM; in the test on HOP-62 NSCLC, 0.383 µM; in the test on IGROV1 ovarian, 0.464 µM; with LOX IMVI melanoma it was 0.295 µM; in the test on OVCAR-5 ovarian, 1.25 µM; in the test with OVCAR-8 ovarian it was 0.303 µM. Moreover, the GI50 was 0.057 µM in the test with RPMI-8226 leukemia and 0.192 µM in the test with SF-295 CNS. The TGI in the test with HL-60(TB) leukemia was 0.651 µM; in the test on HOP-62 NSCLC, 13.8 µM; in the test with IGROV1 ovarian, 42.5 µM; in the test on LOX IMVI melanoma, 13.4 µM; with OVCAR-5 ovarian it was above 70.5 µM; with OVCAR-8 ovarian, 13.9 µM. Moreover, the TGI in the test with RPMI-8226 leukemia was 2.67 µM; in the test on SF-295 CNS it was 2.48 µM.
Consider `CCSc1oc(-c2ccccc2)nc1[P+](c1ccccc1)(c1ccccc1)c1ccccc1`, for which the GI50 is 0.149 µM with HL-60(TB) leukemia; 0.308 µM in the test with HOP-62 NSCLC; 0.285 µM with IGROV1 ovarian; 0.184 µM with LOX IMVI melanoma; 0.416 µM in the test with OVCAR-5 ovarian; 0.275 µM in the test on OVCAR-8 ovarian. Besides, the GI50 in the test with RPMI-8226 leukemia is 0.135 µM; with SF-295 CNS, 0.241 µM. The TGI with HL-60(TB) leukemia came out at 0.469 µM; in the test with HOP-62 NSCLC it was 1.87 µM; in the test with IGROV1 ovarian, 1.53 µM; with LOX IMVI melanoma, 0.412 µM; with OVCAR-5 ovarian, 6.36 µM; in the test with OVCAR-8 ovarian it was 12.3 µM. In addition, the TGI turned out to be 0.52 µM in the test on RPMI-8226 leukemia and 0.739 µM with SF-295 CNS.
As for `S=c1nc(-c2ccccc2)oc(=NC2CCCCC2)n1C1CCCCC1`, the GI50 in the test with HL-60(TB) leukemia was 1.9 µM; with HOP-62 NSCLC, 5.9 µM; in the test with IGROV1 ovarian it was 3 µM; in the test on LOX IMVI melanoma, 4.89 µM; with OVCAR-5 ovarian, 8.54 µM; in the test on OVCAR-8 ovarian, 3.22 µM. Besides, the GI50 is 2.69 µM in the test on RPMI-8226 leukemia and 4.07 µM in the test on SF-295 CNS. The TGI in the test on HL-60(TB) leukemia is 5.29 µM; with HOP-62 NSCLC, 23.1 µM; with IGROV1 ovarian, 8.13 µM; in the test on LOX IMVI melanoma, 20.8 µM; in the test on OVCAR-5 ovarian it was 30.3 µM; with OVCAR-8 ovarian, 18.5 µM. For the same molecule, the TGI is 6.51 µM in the test with RPMI-8226 leukemia and 37.4 µM with SF-295 CNS.
For `CCN1CCN(c2nc(NNC(=O)Cc3ccccc3)nc(N3CCN(C(c4ccccc4)c4ccccc4)CC3)n2)CC1`, the GI50 was 1.89 µM with HL-60(TB) leukemia; 2.06 µM in the test with HOP-62 NSCLC; 2.03 µM in the test with IGROV1 ovarian; 1.89 µM in the test on LOX IMVI melanoma; 2.24 µM in the test with OVCAR-5 ovarian; 2.51 µM in the test with OVCAR-8 ovarian. Further, the GI50 in the test on RPMI-8226 leukemia was 1.79 µM; in the test with SF-295 CNS, 2.01 µM. The TGI in the test on HL-60(TB) leukemia was found to be 4.04 µM; with HOP-62 NSCLC, 5.08 µM; with IGROV1 ovarian, 5.02 µM; with LOX IMVI melanoma, 3.43 µM; in the test with OVCAR-5 ovarian, 5.63 µM; with OVCAR-8 ovarian, 6.57 µM. Further, the values for the TGI with RPMI-8226 leukemia and in the test with SF-295 CNS were 4.31 µM and 3.99 µM, respectively.
With `O=NC1c2cccc3cccc(c23)C1N=O` (stereo not given), the TGI in the test with HL-60(TB) leukemia came out at 6.61 µM; in the test with HOP-62 NSCLC, 19.5 µM; in the test with IGROV1 ovarian it was 3.19 µM; in the test with LOX IMVI melanoma, 5.6 µM; in the test on OVCAR-5 ovarian, 9.11 µM; in the test with OVCAR-8 ovarian, 6.65 µM. Also, the TGI turned out to be 39.9 µM with RPMI-8226 leukemia and 24.8 µM in the test with SF-295 CNS.
